In one data set the test system is OVCAR-3 cells. The data set can be described thus: OVCAR-3 cell proliferation (Cell Titer-Glo, 10 days). It is filed as cell-based, human. The method, boiled down:
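400 cells per well were seeded onto pre-dispensed compound (final 0.12 nM to 10 μM) in RPMI-1640 with 20% FBS and insulin, then co-cultured for 10 days. Viability was read as Cell Titer-Glo luminescence, inhibition was taken against 0.1% DMSO control, and IC50 came from nonlinear concentration-inhibition regression.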
Background: In ATP-based viability assays light output follows the ATP content of the culture.

Another data set has as its target KIF18A (Homo sapiens (Human), UniProt Q8NI77). Description: KIF18A ATPase activity under tubulin stimulation (ADP-Glo assay). It is filed as biochemical. The following applies: KIF18A 30 nM, ATP 150 μM, pig microtubules. For orientation: ADP-Glo first removes unused ATP, then detects ADP through luciferase.
In another data set the test system is HT-29 cells. Description: HT-29 cell proliferation (Cell Titer-Glo, 6 days). The format is cell-based. The method, then: The inhibitory effect on the KIF18A target by the compounds of the present disclosure was evaluated by testing the inhibitory effect on proliferation of HT-29 cells by the compounds of the present disclosure.
HT-29 (ATCC, HTB-38) cells were cultured in McCoy's 5a complete medium (Gibco, 12330-031) containing 10% fetal bovine serum (Gibco, 10099-141C), 100 U penicillin and […] streptomycin (Gibco, 15140-122). The Promega kit Cell Titer-Glo (Promega: G7572) was used in this method for test. • 1. HT-29 cells were cultured in T75 cell flasks (Corning, 430641) and the medium was placed in a 37° C., 5% CO2 incubator. Cells were passaged when reaching a cell density of 70%-80%, approximately twice per week. • 2. To perform the experiment, the test compounds were dissolved in DMSO to prepare a 10 mM stock solution, and the test compounds were added to the 384-well cell test plate (Corning, 3765) at the predetermined concentration using ECHO. • 3. The cell culture flask was taken out, the medium was removed, and the cells were rinsed with PBS. Then 2 mL of trypsin (with 0.25% EDTA) was added, and the flask was placed in the incubator for digestion for 4 minutes. • 4. Digestion was stopped by adding 4 mL of complete medium and the cell suspension was transferred to a centrifuge tube and centrifuged at 1000 rpm for 4 minutes. • 5. The cells were resuspended in 6 mL of complete medium, followed by cell counting. The cell density was adjusted to 4,170 cells/mL, and the cells were added to a 384-well plate at 60 μL/well. • 6. The 384-well plate was centrifuged at 500 rpm for 1 minute, and then placed in a 37° C., 5% CO2 incubator for 6 days of cultivation. • 7. Six days later, the cell culture plate was equilibrated for 10 minutes at room temperature, 25 μL of Cell Titer-Glo was added to each well, and the mixture was shaken and mixed well and let stand for 5 minutes. The luminescence values for samples in various wells were read using a microplate reader in Luminescence mode.
The percentage of inhibition of cell proliferation by the test compound at each concentration was calculated by comparing with the values of the control group (0.3% DMSO). The IC50 values of the compounds were obtained by concentration-inhibition rate nonlinear regression analysis of the test compounds using GraphPad Prism 9.

Another data set is described as follows: PK study in ICR mice. It is filed as in vivo, mouse. The following applies: both sexes, mouse, plasma, route and dose not given; for AUC: read-out: AUC; for Cmax: read-out: Cmax. As for the experimental part:
6 ICR mice (male/female) were divided into two groups, administered orally and intravenously, respectively, with 3 mice/group. The mice were fasted for 10-14 hours prior to dosing with free access to water.
The test compound was weighed according to the administration dose, and prepared into a dose formulation at appropriate concentrations (for rats and mice, intravenous and oral administration at a volume of 5 mL/kg and 10 mL/kg, respectively), wherein the intravenous injection was a clear solution, and the oral preparation was a clear solution or a homogeneous suspension.
Animals were dosed by intravenous injection and oral gavage, and blood samples were collected at 0.033, 0.083, 0.25, 0.5, 1, 2, 4, 8, and 24 h after intravenous administration and 0.083, 0.25, 0.5, 1, 2, 4, 6, 8, and 24 h after oral administration. Whole blood was centrifuged at 6800 g for 6 min at 4° C. and the top plasma was stored in a −80° C. freezer for later analysis.
The DMSO stock solution of the test compound was diluted into a series of working solutions with a methanol or an acetonitrile solution, and added to a blank plasma matrix, and standard curves were generated and quality control samples were prepared. An appropriate volume of the plasma sample was taken and a suitable multiple of methanol or acetonitrile containing an internal standard was added for protein precipitation based on the response. After centrifugation of all samples at 18000 g for 10 min at 4° C., an appropriate amount of supernatant was taken for LC-MS/MS injection analysis.
Drug concentration-time curves in plasma were plotted according to test concentrations, and pharmacokinetic parameters were calculated using noncompartmental analysis by WinNonlin software, including: half-life (T½), area under the concentration-time curve from time zero to time t (AUCO-t), clearance (CL), volume of distribution at steady state (Vss) and bioavailability (F), with some of the test results shown in Table 4.

Like-named read-outs stand apart in the source and are kept apart here.

KIF18A, sequence (Q8NI77 whole entry): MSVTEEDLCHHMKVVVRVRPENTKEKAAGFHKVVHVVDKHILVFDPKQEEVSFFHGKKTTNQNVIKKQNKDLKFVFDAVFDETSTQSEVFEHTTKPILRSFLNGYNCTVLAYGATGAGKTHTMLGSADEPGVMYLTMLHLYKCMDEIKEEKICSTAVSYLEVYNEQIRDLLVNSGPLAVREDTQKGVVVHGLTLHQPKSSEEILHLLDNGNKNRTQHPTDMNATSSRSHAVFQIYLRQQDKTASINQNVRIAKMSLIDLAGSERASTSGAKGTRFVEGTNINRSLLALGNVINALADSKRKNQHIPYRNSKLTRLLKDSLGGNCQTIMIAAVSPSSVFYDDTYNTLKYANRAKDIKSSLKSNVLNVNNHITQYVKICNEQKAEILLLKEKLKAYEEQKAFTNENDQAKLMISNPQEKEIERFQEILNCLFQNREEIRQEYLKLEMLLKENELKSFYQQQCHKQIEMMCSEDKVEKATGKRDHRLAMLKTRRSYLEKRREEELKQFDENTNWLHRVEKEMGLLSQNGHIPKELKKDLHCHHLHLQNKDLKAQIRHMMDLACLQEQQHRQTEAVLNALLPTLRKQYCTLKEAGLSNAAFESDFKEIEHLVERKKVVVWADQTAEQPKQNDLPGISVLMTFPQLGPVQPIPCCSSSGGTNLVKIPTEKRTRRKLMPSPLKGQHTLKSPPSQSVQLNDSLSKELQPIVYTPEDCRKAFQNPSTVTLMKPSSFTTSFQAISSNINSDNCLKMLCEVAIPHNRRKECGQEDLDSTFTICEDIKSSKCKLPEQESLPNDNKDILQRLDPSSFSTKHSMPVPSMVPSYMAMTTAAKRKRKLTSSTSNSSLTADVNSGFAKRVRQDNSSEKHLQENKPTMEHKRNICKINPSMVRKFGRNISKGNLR
KIF18A, sequence (P02550 whole entry partner): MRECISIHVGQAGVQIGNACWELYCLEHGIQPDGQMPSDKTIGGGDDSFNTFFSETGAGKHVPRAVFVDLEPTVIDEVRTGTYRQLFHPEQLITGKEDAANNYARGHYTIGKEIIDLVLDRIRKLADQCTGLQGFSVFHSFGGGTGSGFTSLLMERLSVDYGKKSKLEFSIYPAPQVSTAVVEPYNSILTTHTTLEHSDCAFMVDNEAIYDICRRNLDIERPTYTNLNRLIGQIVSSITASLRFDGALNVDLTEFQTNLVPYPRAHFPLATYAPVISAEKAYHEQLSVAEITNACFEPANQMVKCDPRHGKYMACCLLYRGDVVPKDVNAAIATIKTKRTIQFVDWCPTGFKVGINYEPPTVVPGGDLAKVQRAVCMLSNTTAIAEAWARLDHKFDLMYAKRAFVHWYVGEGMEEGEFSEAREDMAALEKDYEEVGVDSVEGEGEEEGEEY
KIF18A, sequence (P02554 whole entry partner): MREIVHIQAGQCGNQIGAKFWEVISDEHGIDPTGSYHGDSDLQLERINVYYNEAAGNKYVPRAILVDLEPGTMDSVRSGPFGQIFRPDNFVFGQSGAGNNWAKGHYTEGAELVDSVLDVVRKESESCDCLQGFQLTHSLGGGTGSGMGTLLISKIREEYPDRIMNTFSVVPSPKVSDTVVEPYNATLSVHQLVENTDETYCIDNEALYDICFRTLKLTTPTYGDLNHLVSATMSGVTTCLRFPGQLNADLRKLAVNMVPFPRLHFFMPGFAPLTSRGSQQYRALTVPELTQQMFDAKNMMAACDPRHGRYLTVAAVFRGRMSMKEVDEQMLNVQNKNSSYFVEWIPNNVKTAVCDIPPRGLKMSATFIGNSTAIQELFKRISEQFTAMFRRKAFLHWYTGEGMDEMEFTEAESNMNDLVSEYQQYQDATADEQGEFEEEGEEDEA

`[2H]C([2H])([2H])OC1c2cc3c(NC(=O)c4ccc(NS(=O)(=O)CCO)cc4N4CCC(=C(F)F)CC4)cccc3n2CCC1(F)F` (single isomer, unassigned) [Compound 386-P2, N-(8,8-difluoro-9-(methoxy-d3)-6,7,8,9-tetrahydropyridino[1,2-a]indol-1-yl)-2-(4-(difluoromethylene)piperidin-1-yl)-4-((2-hydroxyethyl)sulfonamido)benzamide]: the IC50 in the data set on OVCAR-3 cells is 50 to 500 nM; at KIF18A, at most 50 nM; with HT-29 cells it was at most 200 nM.
Regarding `[2H]C([2H])([2H])OC1c2cc3c(NC(=O)c4ccc(NS(=O)(=O)CCO)cc4N4CCC(=C(F)F)CC4)cccc3n2CCC1(F)F` (centres unmarked) [Compound 386, N-(8,8-difluoro-9-(methoxy-d3)-6,7,8,9-tetrahydropyridino[1,2-a]indol-1-yl)-2-(4-(difluoromethylene)piperidin-1-yl)-4-((2-hydroxyethyl)sulfonamido)benzamide], the IC50 with OVCAR-3 cells lay within 50 to 500 nM; against KIF18A, 50 to 500 nM; in the data set on HT-29 cells (Homo sapiens, HT-29, 144 h), 200 to 1000 nM.
Regarding `CC1(C)OCCn2c1cc1c(NC(=O)c3ccc(NS(=O)(=O)CCO)cc3N3CCC4(CC3)CC4)cccc12` [Compound 396, N-(1,1-dimethyl-3,4-dihydro-1H-[1,4]oxazino[4,3-a]indol-9-yl)-4-((2-hydroxyethyl)sulfonamido)-2-(6-azaspiro[2.5]octan-6-yl)benzamide], the IC50 with OVCAR-3 cells (Homo sapiens, OVCAR-3, 240 h) is at most 50 nM; on KIF18A, 50 to 500 nM; in the data set on HT-29 cells (Homo sapiens, HT-29, 144 h), at most 200 nM.
Take `O=C(Nc1cccc2c1cc1n2CC2(CC2)OC1)c1ccc(NS(=O)(=O)CCO)cc1N1CCC(=C(F)F)CC1` [Example 485, 2-(4-(difluoromethylene)piperidin-1-yl)-4-((2-hydroxyethyl)sulfonamido)-N-(1′H,4′H-spiro[cyclopropane-1,3′-[1,4]oxazino[4,3-a]indole]-9′-yl)benzamide]: the half-inhibitory concentration (IC50) in the data set on OVCAR-3 cells (Homo sapiens, OVCAR-3, 240 h) was 50 to 500 nM; against KIF18A, at most 50 nM; in the data set with HT-29 cells (Homo sapiens, HT-29, 144 h) it was 200 to 1000 nM. Moreover, the AUC in “PK study in ICR mice” stood at 33300 ng·h/mL. Further, the Cmax in “PK study in ICR mice” worked out at 3740 ng/mL.
Consider `O=C(Nc1ccnc2c1cc1n2CCC(F)(F)C1)c1ccc(NS(=O)(=O)CCO)cc1N1CCC(=C(F)F)CC1` [Example 376], for which the IC50 with OVCAR-3 cells was at most 50 nM; on KIF18A, at most 50 nM; in the data set with HT-29 cells, 200 to 1000 nM.
In the case of `[2H]C([2H])([2H])OC1c2cc3c(NC(=O)c4ccc(NS(=O)(=O)CCO)cc4N4CCC5(CC4)CC5)cccc3n2CCC1(F)F` (single isomer, unassigned) [Compound 385-P2, N-(8,8-difluoro-9-(methoxy-d3)-6,7,8,9-tetrahydropyridino[1,2-a]indol-1-yl)-4-((2-hydroxyethyl)sulfonamido)-2-(6-azaspiro[2.5]oct-6-yl)benzamide], the IC50 in the data set with OVCAR-3 cells is at most 50 nM; in the data set with HT-29 cells, at most 200 nM.
As to `O=C(Nc1cccc2c1cc1n2CCC(F)(F)C1O)c1ccc(NS(=O)(=O)CCO)cc1N1CCC2(CC1)CC2` (single isomer, unassigned) [Compound 384-P2, N-(8,8-difluoro-9-hydroxy-6,7,8,9-tetrahydropyridino[1,2-a]indol-1-yl)-4-((2-hydroxyethyl)sulfonamido)-2-(6-azaspiro[2.5]oct-6-yl)benzamide], the IC50 was at most 50 nM in the data set on OVCAR-3 cells, 50 to 500 nM against KIF18A and at most 200 nM with HT-29 cells.
`[2H]C([2H])([2H])OC1c2cc3c(NC(=O)c4ccc(NS(=O)(=O)CCO)cc4N4CCC5(CC4)CC5)cccc3n2CCC1(F)F` (centres unmarked) [Compound 385, N-(8,8-difluoro-9-(methoxy-d3)-6,7,8,9-tetrahydropyridino[1,2-a]indol-1-yl)-4-((2-hydroxyethyl)sulfonamido)-2-(6-azaspiro[2.5]oct-6-yl)benzamide]: the IC50 in the data set with OVCAR-3 cells was at most 50 nM; at KIF18A it was 50 to 500 nM; with HT-29 cells (Homo sapiens, HT-29, 144 h), at most 200 nM.
With `O=C(Nc1cccc2c1cc1n2CCC(F)(F)C1O)c1ccc(NS(=O)(=O)CCO)cc1N1CCC2(CC1)CC2` (single isomer, unassigned) [Compound 384-P1, N-(8,8-difluoro-9-hydroxy-6,7,8,9-tetrahydropyridino[1,2-a]indol-1-yl)-4-((2-hydroxyethyl)sulfonamido)-2-(6-azaspiro[2.5]oct-6-yl)benzamide], the IC50 with OVCAR-3 cells (Homo sapiens, OVCAR-3, 240 h) was at most 50 nM; against KIF18A it was at most 50 nM; in the data set with HT-29 cells (Homo sapiens, HT-29, 144 h) it was at most 200 nM. In addition, the AUC in “PK study in ICR mice” was found to be 1290 ng·h/mL. Further, the Cmax in the data set “PK study in ICR mice” was 366 ng/mL.
In the case of `O=C(Nc1ccnc2c1cc1n2CCC(F)(F)C1)c1ccc(NS(=O)(=O)CCO)cc1N1CCC2(CC1)CC2` [Example 380, N-(7,7-difluoro-6,7,8,9-tetrahydropyridin[3,2-b]indolizin-4-yl)-4-((2-hydroxyethyl)sulfonamido)-2-(6-azaspiro[2.5]oct-6-yl)benzamide], the IC50 with OVCAR-3 cells was at most 50 nM; against KIF18A it was at most 50 nM; with HT-29 cells, at most 200 nM.
As to `CC1=CCCn2c1cc1c(NC(=O)c3ccc(NS(=O)(=O)CCO)cc3N3CCC4(CC3)CC4)cccc12` [Compound 410, 4-(2-hydroxyethyl)sulfonamido-N-(9-methyl-6,7-dihydropyridino[1,2-a]indol-1-yl)-2-(6-azaspiro[2.5]octan-6-yl)benzamide], the IC50 is at most 50 nM with OVCAR-3 cells (Homo sapiens, OVCAR-3, 240 h); 50 to 500 nM against KIF18A; at most 200 nM in the data set on HT-29 cells (Homo sapiens, HT-29, 144 h). The AUC in the data set “PK study in ICR mice” turned out to be 16400 ng·h/mL. Besides, in “PK study in ICR mice”, the Cmax turned out to be 2790 ng/mL.

As usually defined, the IC50 is the point on the concentration scale where inhibition reaches its midpoint. Higher therefore signals weaker potency. Usually AUC stands for the area under the concentration-time curve, a measure of exposure. By Cmax is commonly meant the highest concentration seen after dosing.

(Values after patent US20260070887A1 (Shenzhen Zhongge Biological Technology Co., Ltd., priority 2022, published 2026).)
